Experimental data published in PubChem BioAssay AID1918995 (Molecular Pharmacology Branch, DTP, NCI, 2023).

Test system: 324938-238-R-J1-PDC complex spheroid growth, % test/control
Assay: Anticancer human tumor 324938-238-R-J1-PDC patient-derived bladder carcinoma cell line growth inhibition [AhR]
Settings: for IC50: curve of first compound; for viability, T/C: stronger effect = lower value
Description: Multicellular complex tumor spheroid response to aryl hydrocarbon receptor antagonists in combination with a variety of drugs and investigational agents in selected tumor cell lines
The current study was undertaken to assess response to aryl hydrocarbon receptor antagonists in combination with standard-of-care drugs and investigational agents in solid tumor complex spheroid models. Complex spheroids include a stromal component modeled by human endothelial cells (HUVEC) and fibroblasts modeled by human mesenchymal stem cells (MSCs). The concentration ranges selected for each drug and investigational agent were based upon clinically achievable concentrations if the clinical Cmax of the agent was known.
Compounds. The drugs and investigational agents: BAY 2416964 (NSC825713), GNF351 (NSC835774), CH-223191 (NSC835775), CPI-455 (NSC825282), aza-TdCyd (NSC777586), decitabine (NSC127716), belinostat (NSC758774), entinostat (NSC756642), pevonedistat (NSC761192), tazemetostat (NSC777109), talazoparib (NSC765396), olaparib (NSC753686), selinexor (NSC780203), nedisertib (M3814, NSC802822), bortezomib (NSC756655), venetoclax (NSC766270), doxorubicin (NSC123127), elimusertib (BAY189344, NSC800525), ceralasertib (AZD6738, NSC777638), TAK-243 (NSC785004), alisertib (NSC759677), etoposide (NSC141540), topotecan (NSC609699), eribulin (NSC707389), gemcitabine (NSC613327), carboplatin (NSC241240), cisplatin (NSC119875), and SN-38 (NSC673596) were obtained from the National Cancer Institute (NCI) Developmental Therapeutics Program Chemical Repository (32). The FDA-approved anticancer drug set is available from the Developmental Therapeutics Program at https://dtp.cancer.gov/organization/dscb/obtaining/available plates.htm. […] The stock solutions were prepared in dimethyl sulfoxide (DMSO, Sigma-Aldrich, St. Louis, MO, cat. D2650), except for the platinum compounds which were prepared in saline (Quality Biological, Gaithersburg, MD, cat. 114-055-101), at 800-fold the tested concentration and stored at -70 degrees C prior to their use. All drugs and investigational agents were tested over a range starting from a high concentration at or near the clinical Cmax and decreasing in half-log increments. If the clinical Cmax for an agent had not been determined, the highest concentration tested was 10 microM (Table 1).
Cell Culture. All cells were maintained in an incubator at 37 degrees C and 5% CO2 with 95% humidity. The PDC lines were cultured according to standard operating procedures established by the NCI PDMR (https://pdmr.cancer.gov). Briefly, all PDCs were thawed and cultured in Matrigel-coated flasks prepared with a working solution of 1X Ham's F-12 nutrient mix, without supplementation (Invitrogen, Waltham, MA, cat. 11765054), 100 U/mL penicillin-streptomycin (Invitrogen, cat. 15140122), and 2.5% Matrigel (Corning Inc., Corning, NY, cat. 354248) for the first three passages. All PDCs were cultured in complete DMEM/F-12 media containing advanced DMEM/F-12 (Invitrogen, cat. 12634028), 4.9% defined fetal bovine serum, heat inactivated (HyClone Laboratories Inc., Logan, UT, cat. SH30070.03HI), 389 ng/mL hydrocortisone (Sigma-Aldrich, cat. H4001), 9.7 ng/mL human EGF recombinant protein (Invitrogen, cat. PHG0313), 23.4 microg/mL adenine (Sigma-Aldrich, cat. A2786), 97.3 U/mL penicillin-streptomycin (Invitrogen, cat. 15140122), 1.9 mM L-glutamine (Invitrogen, cat. 25030081), and 9.7 microM Y-27632 dihydrochloride (Tocris Bioscience, Bristol, United Kingdom, cat. 1254). The PDCs were cultured in complete DMEM/F12 media without 10 microM Y-27632 dihydrochloride for at least two passages prior to the screen. The established cell lines NCI-H1341 and […] were cultured in DMEM/F-12, HEPES (Invitrogen, cat. 11330032), 5% defined fetal bovine serum (HyClone Laboratories Inc., cat. SH30070.03), ITS premix universal culture supplement [insulin (5 microg/mL), transferrin (5 microg/mL), and selenious acid (5 ng/mL)] […]

[1] = second compound 0.1 µM, first compound 0.0316 µM
[2] = second compound 0.1 µM, first compound 0.1 µM
[3] = second compound 0.1 µM, first compound 0.316 µM
[4] = second compound 0.1 µM, first compound 1 µM
[5] = second compound 0.1 µM, first compound 3.16 µM
[6] = second compound 0.1 µM, first compound 10 µM
[7] = second compound 0.316 µM, first compound 0.0316 µM
[8] = second compound 0.316 µM, first compound 0.1 µM
[9] = second compound 0.316 µM, first compound 0.316 µM
[10] = second compound 0.316 µM, first compound 1 µM
[11] = second compound 0.316 µM, first compound 3.16 µM
[12] = second compound 0.316 µM, first compound 10 µM
[13] = second compound 1 µM, first compound 0.0316 µM
[14] = second compound 1 µM, first compound 0.1 µM
[15] = second compound 1 µM, first compound 0.316 µM
[16] = second compound 1 µM, first compound 1 µM
[17] = second compound 1 µM, first compound 3.16 µM
[18] = second compound 1 µM, first compound 10 µM
[19] = second compound 3.16 µM, first compound 0.0316 µM
[20] = second compound 3.16 µM, first compound 0.1 µM
[21] = second compound 3.16 µM, first compound 0.316 µM
[22] = second compound 3.16 µM, first compound 1 µM
[23] = second compound 3.16 µM, first compound 3.16 µM
[24] = second compound 3.16 µM, first compound 10 µM
[25] = second compound 10 µM, first compound 0.0316 µM
[26] = second compound 10 µM, first compound 0.1 µM
[27] = second compound 10 µM, first compound 0.316 µM
[28] = second compound 10 µM, first compound 1 µM
[29] = second compound 10 µM, first compound 3.16 µM
[30] = second compound 10 µM, first compound 10 µM
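Note: spheroids exposed to agents for seven days before viability read.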

COc1cc(Nc2ncc3c(n2)-c2ccc(Cl)cc2C(c2c(F)cccc2OC)=NC3)ccc1C(=O)O + Cc1ccccc1N=Nc1ccc(NC(=O)c2ccnn2C)c(C)c1 showed an IC50 (second compound 0.1 µM) of 0.139 µM, an IC50 (second compound 0.316 µM) of 0.101 µM and an IC50 (second compound 1 µM) of 0.0855 µM. The IC50 (second compound 3.16 µM) was 0.0662 µM, the IC50 (second compound 10 µM) was 0.071 µM and the viability, T/C [1] was 72.5%. The viability, T/C [2] was 55.7%, the viability, T/C [3] was 36.1% and the viability, T/C [4] was 31.9%. It also gave a viability, T/C [5] of 31.6%, a viability, T/C [6] of 39.4% and a viability, T/C [7] of 66.7%. It also gave a viability, T/C [8] of 50.1%, a viability, T/C [9] of 32.8% and a viability, T/C [10] of 32.5%. It also gave a viability, T/C [11] of 33.8%, a viability, T/C [12] of 34.3% and a viability, T/C [13] of 65.1%. The viability, T/C [14] was 47.6%, the viability, T/C [15] was 31.6% and the viability, T/C [16] was 31.2%. For the same compound, the viability, T/C [17] was 30.4%, the viability, T/C [18] was 34.8% and the viability, T/C [19] was 57.4%. It also gave a viability, T/C [20] of 45.9%, a viability, T/C [21] of 27.5% and a viability, T/C [22] of 28.7%. It also gave a viability, T/C [23] of 27.5%, a viability, T/C [24] of 30.1% and a viability, T/C [25] of 60.4%. For the same compound, the viability, T/C [26] was 49.1%, the viability, T/C [27] was 34.8% and the viability, T/C [28] was 36.9%. The viability, T/C [29] was 37% and the viability, T/C [30] was 41.7%.
Compound Nc1ccccc1NC(=O)c1ccc(CNC(=O)OCc2cccnc2)cc1 + Cc1cncc(-c2nc(NCCc3c[nH]c4ccccc34)c3ncn(C(C)C)c3n2)c1 has an IC50 (second compound 0.1 µM) of 1.74 µM, an IC50 (second compound 0.316 µM) of 4.61 µM and an IC50 (second compound 1 µM) of 3.44 µM. It also gave an IC50 (second compound 3.16 µM) of 4.1 µM, an IC50 (second compound 10 µM) of under 0.0316 µM and a viability, T/C [1] of 87.7%. The viability, T/C [2] was 91%, the viability, T/C [3] was 97.5% and the viability, T/C [4] was 48.9%. For the same compound, the viability, T/C [5] was 43.2%, the viability, T/C [6] was 6.54% and the viability, T/C [7] was 67.6%. The viability, T/C [8] was 104%, the viability, T/C [9] was 79.5% and the viability, T/C [10] was 83.4%. The viability, T/C [11] was 72.2%, the viability, T/C [12] was 4.51% and the viability, T/C [13] was 105%. The viability, T/C [14] was 89.6%, the viability, T/C [15] was 79.8% and the viability, T/C [16] was 78.5%. The viability, T/C [17] was 57.8%, the viability, T/C [18] was 3.52% and the viability, T/C [19] was 64.2%. It also gave a viability, T/C [20] of 61%, a viability, T/C [21] of 62.3% and a viability, T/C [22] of 65.3%. For the same compound, the viability, T/C [23] was 68.1%, the viability, T/C [24] was 1.13% and the viability, T/C [25] was 2.83%. For the same compound, the viability, T/C [26] was 3.36%, the viability, T/C [27] was 4.55% and the viability, T/C [28] was 1.45%. For the same compound, the viability, T/C [29] was 6% and the viability, T/C [30] was 0.4%.
